Values quoted from earlier work, collected in patent US8039631B2, “Process for preparing crystalline form A of Lansoprazole” (Daewoong Pharmaceutical Co., Ltd., priority 2006, dated 2011).
Like-named read-outs stand apart in the source and are kept apart here.

How the values were obtained:
[1] = not given; remark: listed apart in the source

Row | stability (change) when stored (stored for one year at room temperature or elevated temperature) | change in the crystalline form on storage (at elevated temperature) | stability when stored (stored for one year at a low temperature (0° C. or lower)) | conversion of Form B to Form A ([1]; at 40° C.) | conversion of Form B to Form A ([1]; at a temperature of 10° C. or lower) | SMILES
1 | does not change |  |  |  |  | Cc1c(OCC(F)(F)F)ccnc1C[S+]([O-])c1nc2ccccc2[nH]1 (centres unmarked) [Form A, Lansoprazole]
2 |  | some change in the crystalline form | high stability | rapidly | slowly converted to Form A | Cc1c(OCC(F)(F)F)ccnc1C[S+]([O-])c1nc2ccccc2[nH]1 (centres unmarked) [Form B, Lansoprazole]
